Assay results from US20260262643A1, “HERBICIDAL BENZOXAZINES” (FMC CORPORATION, priority 2022, published 2026).

Tests used:
galium = assay: Test C postemergence; assay type: in vivo, Galium aparine; conditions: 10 days
Outline: (§1)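 Greenhouse herbicide screen, 10-day duration. Test chemicals in solvent/surfactant blend were sprayed onto soil at sowing (pre) or onto 2–10 cm seedlings at one to two leaves (post); injury scored visually against controls, 0 no effect to 100 complete control.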

ragweed [1] = assay: Test C postemergence; assay type: in vivo, Ambrosia artemisiifolia; conditions: 10 days
Outline: as §1

barnyardgrass [2] = assay: Test D flooded paddy test; assay type: in vivo, Echinochloa crus-galli; conditions: 250 g ai/ha, applied to paddy water, visual rating after 13 to 14 days, scale 0 to 100 (0 no effect, 100 complete control)
Outline: (§2)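 Compounds go straight into paddy water over 2-leaf plants in pots flooded to 3 cm. Greenhouse holding lasts 13 to 14 days. Injury is scored by eye against controls from 0 (none) to 100 (complete control).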

ducksalad = assay: Test D flooded paddy test; assay type: in vivo, Heteranthera limosa; conditions: 250 g ai/ha, applied to paddy water, visual rating after 13 to 14 days, scale 0 to 100 (0 no effect, 100 complete control)
Outline: as §2

ryegrass, Italian [3] = assay: Test C postemergence; assay type: in vivo, Lolium multiflorum; conditions: 10 days
Outline: as §1

pigweed, palmer [4] = assay: Test C preemergence; assay type: in vivo, Amaranthus palmeri; conditions: for Plant response rating, Pigweed, Palmer: Preemergence; for Pigweed, Palmer plant response rating: preemergence
Outline: as §1

green foxtail [5] = assay: Test C preemergence; assay type: in vivo, Setaria viridis; conditions: for Plant response rating, Foxtail, Green: Preemergence; for Foxtail, Green plant response rating: preemergence
Outline: as §1

barnyardgrass [6] = assay: Test C preemergence; assay type: in vivo, Echinochloa crusgalli; conditions: for Plant response rating, Barnyardgrass: Preemergence; for Barnyardgrass plant response rating: preemergence
Outline: as §1

blackgrass [7] = assay: Test C preemergence; assay type: in vivo, Alopecurus myosuroides; conditions: for Plant response rating, Blackgrass: Preemergence; for Blackgrass plant response rating: preemergence
Outline: as §1

pigweed, palmer [8] = assay: Test C postemergence; assay type: in vivo, Amaranthus palmeri; conditions: 10 days
Outline: as §1

rice = assay: Test D flooded paddy test; assay type: in vivo, Oryza sativa; conditions: 250 g ai/ha, applied to paddy water, visual rating after 13 to 14 days, scale 0 to 100 (0 no effect, 100 complete control)
Outline: as §2

oat, wild [9] = assay: Test C postemergence; assay type: in vivo, Avena fatua; conditions: 10 days
Outline: as §1

soybean [10] = assay: Test C postemergence; assay type: in vivo, Glycine max; conditions: 10 days
Outline: as §1

blackgrass [11] = assay: Test C postemergence; assay type: in vivo, Alopecurus myosuroides; conditions: 10 days
Outline: as §1

sedge, umbrella = assay: Test D flooded paddy test; assay type: in vivo, Cyperus difformis; conditions: 250 g ai/ha, applied to paddy water, visual rating after 13 to 14 days, scale 0 to 100 (0 no effect, 100 complete control)
Outline: as §2

wheat [12] = assay: Test C postemergence; assay type: in vivo, Triticum aestivum; conditions: 10 days
Outline: as §1

wheat [13] = assay: Test C preemergence; assay type: in vivo, Triticum aestivum; conditions: for Plant response rating, Wheat: Preemergence; for Wheat plant response rating: preemergence
Outline: as §1

oat, wild [14] = assay: Test C preemergence; assay type: in vivo, Avena fatua; conditions: for Plant response rating, Oat, Wild: Preemergence; for Oat, Wild plant response rating: preemergence
Outline: as §1

soybean [15] = assay: Test C preemergence; assay type: in vivo, Glycine max; conditions: for Plant response rating, Soybean: Preemergence; for Soybean plant response rating: preemergence
Outline: as §1

corn [16] = assay: Test C postemergence; assay type: in vivo, Zea mays; conditions: 10 days
Outline: as §1

kochia [17] = assay: Test C preemergence; assay type: in vivo, Bassia scoparia; conditions: for Plant response rating, Kochia: Preemergence; for Kochia plant response rating: preemergence
Outline: as §1

ryegrass, Italian [18] = assay: Test C preemergence; assay type: in vivo, Lolium multiflorum; conditions: for Plant response rating, Ryegrass, Italian: Preemergence; for Ryegrass, Italian plant response rating: preemergence
Outline: as §1

ragweed [19] = assay: Test C preemergence; assay type: in vivo, Ambrosia artemisiifolia; conditions: for Plant response rating, Ragweed: Preemergence; for Ragweed plant response rating: preemergence
Outline: as §1

barnyardgrass [20] = assay: Test C postemergence; assay type: in vivo, Echinochloa crusgalli; conditions: 10 days
Outline: as §1

corn [21] = assay: Test C preemergence; assay type: in vivo, Zea mays; conditions: for Plant response rating, Corn: Preemergence; for Corn plant response rating: preemergence
Outline: as §1

horseweed = assay: Test C postemergence; assay type: in vivo, Erigeron canadensis; conditions: 10 days
Outline: as §1

kochia [22] = assay: Test C postemergence; assay type: in vivo, Bassia scoparia; conditions: 10 days
Outline: as §1

green foxtail [23] = assay: Test C postemergence; assay type: in vivo, Setaria viridis; conditions: 10 days
Outline: as §1

[24] = 125 g ai/ha, postemergence, 0 to 100 scale, 0 no effect, 100 complete control
[25] = Postemergence, 500 g ai/ha, visual 0 to 100 scale (0 no effect, 100 complete control)
[26] = 500 g ai/ha, visual rating after 10 days, 0 to 100 scale (0 no effect, 100 complete control)
[27] = Test C, 125 g ai/ha, 0 to 100 scale (0 no effect, 100 complete control)
[28] = 500 g ai/ha, postemergence, 0 to 100 scale (0 no effect, 100 complete control)
[29] = Postemergence, 125 g ai/ha, 0 to 100 scale (0 no effect, 100 complete control)
[30] = 500 g ai/ha, 0 to 100 scale (0 no effect, 100 complete control)
[31] = 125 g ai/ha, 0 to 100 scale, 0 no effect, 100 complete control

In the case of `Cc1ccc(-n2cnc(C[S+](C)[O-])n2)cc1C(=O)N1C[C@H](C)Oc2c(Cl)cccc21` (stereo partly shown) [Compound 224], the “Plant response rating, Galium” value (galium; [24]) is reported as 100, the “Plant response rating, Ragweed” value (ragweed [1]; [24]) is reported as 50 and the “Plant response rating, Ragweed” value (ragweed [1]; [25]) is reported as 70. The “Plant response rating, Barnyardgrass (Flood)” value (barnyardgrass [2]) was 10, the “Plant response rating, Ducksalad (Flood)” value (ducksalad) was 95 and the “Plant response rating, Ryegrass, Italian” value (ryegrass, Italian [3]; [24]) was 50. For the same compound, the “Plant response rating, Ryegrass, Italian” value (ryegrass, Italian [3]; [25]) was 100, the “Plant response rating, Pigweed, Palmer” value (pigweed, palmer [4]; [26]) was 100 and the “Pigweed, Palmer plant response rating” value (pigweed, palmer [4]; [27]) was 90. For the same compound, the “Plant response rating, Foxtail, Green” value (green foxtail [5]; [26]) was 100, the “Foxtail, Green plant response rating” value (green foxtail [5]; [27]) was 100 and the “Plant response rating, Barnyardgrass” value (barnyardgrass [6]; [26]) was 90. For the same compound, the “Barnyardgrass plant response rating” value (barnyardgrass [6]; [27]) was 40, the “Plant response rating, Blackgrass” value (blackgrass [7]; [26]) was 70 and the “Blackgrass plant response rating” value (blackgrass [7]; [27]) was 20. The “Plant response rating, Pigweed, Palmer” value (pigweed, palmer [8]; [24]) was 90, the “Plant response rating, Pigweed, Palmer” value (pigweed, palmer [8]; [25]) was 90 and the “Plant response rating, Rice (Flood)” value (rice) was 15. For the same compound, the “Plant response rating, Oat, Wild” value (oat, wild [9]; [24]) was 50, the “Plant response rating, Oat, Wild” value (oat, wild [9]; [25]) was 70 and the “Plant response rating, Soybean” value (soybean [10]; [24]) was 100. The “Plant response rating, Soybean” value (soybean [10]; [25]) was 100, the “Plant response rating, Blackgrass” value (blackgrass [11]; [24]) was 30 and the “Plant response rating, Blackgrass” value (blackgrass [11]; [25]) was 70. For the same compound, the “Plant response rating, Sedge, Umbrella (Flood)” value (sedge, umbrella) was 98, the “Plant response rating, Wheat” value (wheat [12]; [24]) was 20 and the “Plant response rating, Wheat” value (wheat [12]; [25]) was 60. The “Plant response rating, Wheat” value (wheat [13]; [26]) was 50, the “Wheat plant response rating” value (wheat [13]; [27]) was 0 and the “Plant response rating, Oat, Wild” value (oat, wild [14]; [26]) was 90. The “Oat, Wild plant response rating” value (oat, wild [14]; [27]) was 30, the “Plant response rating, Soybean” value (soybean [15]; [26]) was 100 and the “Soybean plant response rating” value (soybean [15]; [27]) was 60. For the same compound, the “Plant response rating, Corn” value (corn [16]; [24]) was 50, the “Plant response rating, Corn” value (corn [16]; [25]) was 90 and the “Plant response rating, Kochia” value (kochia [17]; [26]) was 70. For the same compound, the “Kochia plant response rating” value (kochia [17]; [27]) was 40, the “Plant response rating, Ryegrass, Italian” value (ryegrass, Italian [18]; [26]) was 80 and the “Ryegrass, Italian plant response rating” value (ryegrass, Italian [18]; [27]) was 70. The “Plant response rating, Ragweed” value (ragweed [19]; [26]) was 40, the “Ragweed plant response rating” value (ragweed [19]; [27]) was 0 and the “Plant response rating, Barnyardgrass” value (barnyardgrass [20]; [24]) was 10. For the same compound, the “Plant response rating, Barnyardgrass” value (barnyardgrass [20]; [25]) was 50, the “Plant response rating, Corn” value (corn [21]; [26]) was 20 and the “Corn plant response rating” value (corn [21]; [27]) was 0. For the same compound, the “Plant response rating, Horseweed” value (horseweed; [24]) was 30, the “Plant response rating, Horseweed” value (horseweed; [25]) was 50 and the “Plant response rating, Kochia” value (kochia [22]; [24]) was 90. For the same compound, the “Plant response rating, Kochia” value (kochia [22]; [25]) was 90, the “Plant response rating, Foxtail, Green” value (green foxtail [23]; [24]) was 20 and the “Plant response rating, Foxtail, Green” value (green foxtail [23]; [25]) was 70.

With `CC(=O)N(C)c1ncn(-c2cccc(C(=O)N3C[C@H](C)Oc4c(C)cccc43)c2)n1` [Compound 336] the “Plant response rating, Galium” value (galium; [28]) was 90, the “Plant response rating, Galium” value (galium; [29]) was 60 and the “Plant response rating, Ragweed” value (ragweed [1]; [28]) was 10. For the same compound, the “Plant response rating, Ragweed” value (ragweed [1]; [29]) was 20, the “Plant response rating, Barnyardgrass (Flood)” value (barnyardgrass [2]) was 0 and the “Plant response rating, Ducksalad (Flood)” value (ducksalad) was 25. For the same compound, the “Plant response rating, Ryegrass, Italian” value (ryegrass, Italian [3]; [28]) was 80, the “Plant response rating, Ryegrass, Italian” value (ryegrass, Italian [3]; [29]) was 50 and the “Pigweed, Palmer plant response rating” value (pigweed, palmer [4]; [30]) was 90. For the same compound, the “Plant response rating, Pigweed, Palmer” value (pigweed, palmer [4]; [31]) was 10, the “Foxtail, Green plant response rating” value (green foxtail [5]; [30]) was 100 and the “Plant response rating, Foxtail, Green” value (green foxtail [5]; [31]) was 80. The “Barnyardgrass plant response rating” value (barnyardgrass [6]; [30]) was 100, the “Plant response rating, Barnyardgrass” value (barnyardgrass [6]; [31]) was 20 and the “Blackgrass plant response rating” value (blackgrass [7]; [30]) was 40. The “Plant response rating, Blackgrass” value (blackgrass [7]; [31]) was 30, the “Plant response rating, Pigweed, Palmer” value (pigweed, palmer [8]; [28]) was 70 and the “Plant response rating, Pigweed, Palmer” value (pigweed, palmer [8]; [29]) was 20. For the same compound, the “Plant response rating, Rice (Flood)” value (rice) was 0, the “Plant response rating, Oat, Wild” value (oat, wild [9]; [28]) was 70 and the “Plant response rating, Oat, Wild” value (oat, wild [9]; [29]) was 10. For the same compound, the “Plant response rating, Soybean” value (soybean [10]; [28]) was 100, the “Plant response rating, Soybean” value (soybean [10]; [29]) was 80 and the “Plant response rating, Blackgrass” value (blackgrass [11]; [28]) was 90. For the same compound, the “Plant response rating, Blackgrass” value (blackgrass [11]; [29]) was 30, the “Plant response rating, Sedge, Umbrella (Flood)” value (sedge, umbrella) was 0 and the “Plant response rating, Wheat” value (wheat [12]; [28]) was 40. The “Plant response rating, Wheat” value (wheat [12]; [29]) was 10, the “Wheat plant response rating” value (wheat [13]; [30]) was 40 and the “Plant response rating, Wheat” value (wheat [13]; [31]) was 0. The “Oat, Wild plant response rating” value (oat, wild [14]; [30]) was 30, the “Plant response rating, Oat, Wild” value (oat, wild [14]; [31]) was 0 and the “Soybean plant response rating” value (soybean [15]; [30]) was 30. The “Plant response rating, Soybean” value (soybean [15]; [31]) was 0, the “Plant response rating, Corn” value (corn [16]; [28]) was 60 and the “Plant response rating, Corn” value (corn [16]; [29]) was 20. The “Kochia plant response rating” value (kochia [17]; [30]) was 90, the “Plant response rating, Kochia” value (kochia [17]; [31]) was 0 and the “Ryegrass, Italian plant response rating” value (ryegrass, Italian [18]; [30]) was 90. For the same compound, the “Plant response rating, Ryegrass, Italian” value (ryegrass, Italian [18]; [31]) was 70, the “Ragweed plant response rating” value (ragweed [19]; [30]) was 0 and the “Plant response rating, Ragweed” value (ragweed [19]; [31]) was 0. For the same compound, the “Plant response rating, Barnyardgrass” value (barnyardgrass [20]; [28]) was 60, the “Plant response rating, Barnyardgrass” value (barnyardgrass [20]; [29]) was 10 and the “Corn plant response rating” value (corn [21]; [30]) was 20. For the same compound, the “Plant response rating, Corn” value (corn [21]; [31]) was 0, the “Plant response rating, Horseweed” value (horseweed; [28]) was 0 and the “Plant response rating, Horseweed” value (horseweed; [29]) was 0. The “Plant response rating, Kochia” value (kochia [22]; [28]) was 80, the “Plant response rating, Kochia” value (kochia [22]; [29]) was 60 and the “Plant response rating, Foxtail, Green” value (green foxtail [23]; [28]) was 60. The “Plant response rating, Foxtail, Green” value (green foxtail [23]; [29]) was 20.
